≈ marks a conversion by molar mass, not a printed value. Where “and” joins values, the source holds several entries; their conditions need not be identical. Identical values can stand only once.

Holding throughout (experiment): ≥ marks a high value that may be exact or a test limit, other limits are often not marked, values filed in µg/mL are converted to µM
Assay [1] deals with Escherichia coli ATCC 25922.
Assay [2] relates to Candida parapsilosis ATCC 90018.
In assay [3] the test system is Candida krusei ATCC 6258.
The subject of assay [4] is Candida albicans ATCC 10231.
The test system of assay [5] is Staphylococcus aureus ATCC 29213.
The subject of assay [6] is Candida tropicalis ATCC 750.
The subject of assay [7] is Candida glabrata ATCC 2001.
The test system of assay [8] is Pseudomonas aeruginosa ATCC 27853.
Assay [9] concerns Escherichia coli CCARM 1238.
For assay [10], the system named is Aeromonas salmonicida 99-1.
In assay [11] the test system is Trichosporon beigelii KCTC 7707.
In assay [12] the test system is Salmonella typhimurium CCARM 8009.
Assay [13] has as its system Candida albicans KCTC 7270.
Assay [14] has as its system Salmonella typhimurium CCARM 8013.
For assay [15], the system named is Candida albicans C627.
Assay [16] has as its system Salmonella typhimurium KCTC 1926.
The test system of assay [17] is Pseudomonas aeruginosa KCTC 1637.
Assay [18] deals with Escherichia coli KCTC 1682.
In assay [19] the test system is Aeromonas salmonicida 97-4.
In assay [20] the test system is Candida albicans CCARM 14001.
The subject of assay [21] is Pseudomonas aeruginosa.
Assay [22] concerns Staphylococcus aureus CCARM 3090.
In assay [23] the test system is Staphylococcus aureus.
Assay [24] relates to Escherichia coli UB1005.
Assay [25] deals with Staphylococcus aureus KCTC 1621.
Assay [26] relates to Staphylococcus epidermidis C621.
Assay [27] deals with Escherichia coli DC2.
In assay [28] the test system is Escherichia coli CCARM 1229.
For assay [29], the system named is Salmonella enterica subsp. enterica serovar Typhimurium ATCC 14028s.
The subject of assay [30] is Staphylococcus aureus CCARM 3089.
Assay [31] relates to Staphylococcus aureus C623.
The test system of assay [32] is Escherichia coli CGSC 4908.
In assay [33] the test system is Salmonella enterica serovar typhimurium MS7953s.
Assay [34] has as its system Staphylococcus aureus CCARM 3108.
The test system of assay [35] is Staphylococcus aureus CCARM 3126.
Assay [36] relates to Pseudomonas aeruginosa K799.
Assay [37] concerns Pseudomonas aeruginosa Z61.
Assay [38] deals with Salmonella typhimurium CCARM 8007.
Assay [39] relates to Staphylococcus aureus CCARM 3114.
Assay [40] relates to Corynebacterium xerosis C875.
Assay [41] has as its system Staphylococcus aureus ATCC 25923.
The test system of assay [42] is Salmonella typhimurium C587.
For assay [43], the system named is Pseudomonas aeruginosa H188.
In assay [44] the test system is Pseudomonas aeruginosa H187.
Assay [45] has as its system Staphylococcus aureus SAP 0017.
Assay [46] concerns Salmonella typhimurium C610.
Assay [47] concerns Enterococcus faecalis C625.
Assay [48] concerns Bacillus subtilis C971.
The subject of assay [49] is Staphylococcus aureus MTCC 3160.
Assay [50] concerns Escherichia coli MTCC 723.
In assay [51] the test system is Bacillus subtilis MTCC 2763.
Assay [52] concerns Staphylococcus epidermidis ATCC 51625.
Assay [53] deals with Pseudomonas aeruginosa MTCC 2295.
The test system of assay [54] is Staphylococcus aureus ATCC BAA-1720.

Broadly, the MIC is the lowest concentration found to suppress growth. `CC[C@H](C)[C@H](NC(=O)CN)C(=O)N[C@@H](CC(C)C)C(=O)N[C@@H](CC(=O)O)C(=O)N[C@H](C(=O)N[C@@H](CCCCN)C(=O)N[C@@H](CC(N)=O)C(=O)N[C@@H](CCCCN)C(=O)N[C@H](C(=O)N[C@@H](CO)C(=O)N[C@@H](CC(N)=O)C(=O)N[C@@H](CC(C)C)C(=O)N[C@@H](Cc1ccccc1)C(=O)N[C@@H](CCCCN)C(=O)N[C@@H](CCCCN)C(=O)N[C@H](C(=O)N[C@@H](CCCCN)C(=O)NCC(=O)N[C@@H](CCC(=O)O)C(=O)N[C@@H](CCCCN)C(N)=O)[C@@H](C)CC)C(C)C)[C@@H](C)CC` [GILDIKNKVSNLFKKIKGEK]: the MIC in [1] is above 130 µM; in assay [2], at least 500 µM; in [3] it was at least 125 µM; in assay [4], 250 µM (≈ 568 µg/mL); in assay [5] it was above 130 µM; in [6], at least 500 µM. In addition, the MIC in assay [7] was at least 500 µM; in [8] it was above 130 µM.
`CC[C@H](C)[C@H](NC(=O)[C@H](C)NC(=O)[C@H](C)NC(=O)[C@H](CCC(N)=O)NC(=O)CNC(=O)[C@H](CC(C)C)NC(=O)[C@H](Cc1cnc[nH]1)NC(=O)[C@H](CCCCN)NC(=O)[C@H](C)NC(=O)CNC(=O)[C@H](CCCCN)NC(=O)[C@H](CCCNC(=N)N)NC(=O)[C@H](CC(C)C)NC(=O)[C@H](Cc1c[nH]c2ccccc12)NC(=O)[C@H](CCCCN)NC(=O)[C@H](CCCCN)NC(=O)[C@H](Cc1c[nH]c2ccccc12)NC(=O)CN)C(=O)N[C@@H](CCCCN)C(C)=O` [GWKKWLRKGAKHLGQAAIK]: the MIC is 4 µM (≈ 8.7 µg/mL) in assay [9]; 0.919 µM (≈ 2 µg/mL) in [10]; 4 µM and 8 µM in assay [11]; 16 µM (≈ 34.8 µg/mL) in [12]; 8 µM and 16 µM in assay [13]; 4 µM (≈ 8.7 µg/mL) in assay [14]. Also, the MIC in [15] is 3.68 µM (≈ 7.99 µg/mL); in assay [16], 1 µM and 2 µM; in [17], 4 µM and 8 µM; in assay [18], 2 µM and 4 µM; in assay [19] it was 0.459 µM (≈ 0.999 µg/mL); in [20], 8 µM (≈ 17.4 µg/mL). Besides, the MIC in assay [21] was 4 µM (≈ 8.7 µg/mL); in assay [22], 8 µM (≈ 17.4 µg/mL); in assay [23], 2.83 µM (≈ 6.15 µg/mL); in assay [24], 0.919 µM (≈ 2 µg/mL); in assay [25] it was 4 µM and 8 µM; in [26], 7.35 µM (≈ 16 µg/mL). For the same compound, the MIC in assay [27] worked out at 0.23 µM (≈ 0.5 µg/mL); in assay [28] it was 8 µM (≈ 17.4 µg/mL); in assay [29], 7.35 µM (≈ 16 µg/mL); in [30] it was 2 µM (≈ 4.35 µg/mL); in [31], 14.7 µM (≈ 32 µg/mL); in [32] it was 0.459 µM (≈ 0.999 µg/mL). The MIC is 0.23 µM (≈ 0.5 µg/mL) in [33]; 2 µM (≈ 4.35 µg/mL) in [34]; 4 µM (≈ 8.7 µg/mL) in assay [35]; 1.84 µM (≈ 4 µg/mL) in assay [36]; 0.459 µM (≈ 0.999 µg/mL) in assay [37]; 4 µM (≈ 8.7 µg/mL) in assay [38]. Further, in [39], the MIC worked out at 4 µM (≈ 8.7 µg/mL).
Regarding `CC[C@H](C)[C@H](NC(=O)[C@H](C)NC(=O)[C@H](CCCCN)NC(=O)[C@H](CC(C)C)NC(=O)[C@H](C)NC(=O)[C@@H](NC(=O)[C@H](Cc1cnc[nH]1)NC(=O)[C@H](CC(C)C)NC(=O)[C@@H](NC(=O)[C@@H](NC(=O)[C@H](CCCCN)NC(=O)[C@@H](NC(=O)[C@H](C)NC(=O)[C@H](CC(C)C)NC(=O)[C@H](CCCCN)NC(=O)[C@H](Cc1ccccc1)NC(=O)[C@@H](NC(=O)[C@H](CCCCN)NC(=O)[C@H](CC(C)C)NC(=O)[C@H](Cc1ccccc1)NC(=O)[C@H](CO)NC(=O)[C@H](CCCCN)NC(=O)[C@H](Cc1c[nH]c2ccccc12)NC(=O)[C@H](CCCCN)NC(C)=O)[C@@H](C)O)C(C)C)[C@@H](C)O)C(C)C)[C@@H](C)O)C(=O)N[C@@H](CO)C(=O)N[C@@H](CO)C(N)=O` [KWKSFLKTFKLAVKTVLHTALKAISS], the MIC in assay [40] was determined as 0.848 µM (≈ 2.53 µg/mL); in assay [41], 10.9 µM (≈ 32.4 µg/mL); in assay [42] it was 10.9 µM (≈ 32.4 µg/mL); in [43] it was 10.9 µM (≈ 32.4 µg/mL); in [24] it was 5.43 µM (≈ 16.2 µg/mL); in assay [44], 6.86 µM (≈ 20.5 µg/mL). For the same compound, the MIC in assay [26] was found to be 5.43 µM (≈ 16.2 µg/mL); in [27], 1.7 µM (≈ 5.07 µg/mL); in assay [45], 10.9 µM (≈ 32.4 µg/mL); in assay [46] it was 4.31 µM (≈ 12.9 µg/mL); in assay [47], 17.2 µM (≈ 51.5 µg/mL); in assay [48] it was 1.7 µM (≈ 5.07 µg/mL).
In the case of `NC(=O)[C@H](CCCN=C(N)N)NC(=O)[C@H](Cc1c[nH]c2ccccc12)NC(=O)[C@H](Cc1c[nH]c2ccccc12)NC(=O)[C@H](CCCN=C(N)N)NC(=O)[C@@H](N)CCCN=C(N)N` [RRWWR], the MIC in assay [49] was 29.1 µM (≈ 25 µg/mL); in assay [50], at least 87.3 µM; in assay [51], at least 81.5 µM; in assay [52], 23.3 µM (≈ 20 µg/mL); in assay [53], at least 116 µM; in assay [54], 29.1 µM (≈ 25 µg/mL).

(Values after DBAASP.)
